Test results as given in patent US20170246166A1, “1,2-BENZOTHIAZOLE COMPOUNDS FOR THE TREATMENT OF KIDNEY DISORDERS” (priority 2014, published 2017).

Key:
Type in all cases: biochemical
human PKCα = human PKCα (Homo sapiens, UniProt P17252); assay: PKC isoforms based HTRF KinEASE-STK assay, PKCα; details: 50 μM ATP in substrate mix, 30 min
Description: (§1) The purpose of this assay is to evaluate the inhibitory activity of compounds on various PKC isoforms. It has been reported that perturbations in vascular cell homeostasis caused by different PKC isoforms (PKC-α, β1/2, and PKC-δ) are linked to the development of pathologies affecting large vessel (atherosclerosis, cardiomyopathy) and small vessel (retinopathy, nephropathy, and neuropathy) complications. Geraldes, P. and King, G. L., “Activation of Protein Kinase C Isoforms and Its Impact on Diabetic Complications”, Cir.
(§2) Effects of a test compound on the kinase activity of PKCα, β2, δ, ε, ι, and ζ, are determined using a HTRF KINEASE™-STK assay kit (Cisbio) in accordance with the protocol provided by the vendor. It is a general method for measuring Serine/Threonine kinase activities using kinase substrates and a universal detection system. In the current protocol, biotinilated STK1provided in the assay kit is used as the substrate that can be phosphorylated by any PKC isoform. The HTRF KINEASE™-STK assay kit format involves the two steps (Enzymatic step and Detection step) described below. First, the kinase phosphorylates the substrate in the presence of ATP. Second, the detection reagents provided in the assay kit recognize the phosphorylated substrate.

human PKCε = biological target: T1, human PKCε (Homo sapiens, UniProt Q02156); assay: PKC isoforms based HTRF KinEASE-STK assay, PKCε; details: 25 μM ATP in substrate mix, 30 min
T1 sequence (Q02156 1-737): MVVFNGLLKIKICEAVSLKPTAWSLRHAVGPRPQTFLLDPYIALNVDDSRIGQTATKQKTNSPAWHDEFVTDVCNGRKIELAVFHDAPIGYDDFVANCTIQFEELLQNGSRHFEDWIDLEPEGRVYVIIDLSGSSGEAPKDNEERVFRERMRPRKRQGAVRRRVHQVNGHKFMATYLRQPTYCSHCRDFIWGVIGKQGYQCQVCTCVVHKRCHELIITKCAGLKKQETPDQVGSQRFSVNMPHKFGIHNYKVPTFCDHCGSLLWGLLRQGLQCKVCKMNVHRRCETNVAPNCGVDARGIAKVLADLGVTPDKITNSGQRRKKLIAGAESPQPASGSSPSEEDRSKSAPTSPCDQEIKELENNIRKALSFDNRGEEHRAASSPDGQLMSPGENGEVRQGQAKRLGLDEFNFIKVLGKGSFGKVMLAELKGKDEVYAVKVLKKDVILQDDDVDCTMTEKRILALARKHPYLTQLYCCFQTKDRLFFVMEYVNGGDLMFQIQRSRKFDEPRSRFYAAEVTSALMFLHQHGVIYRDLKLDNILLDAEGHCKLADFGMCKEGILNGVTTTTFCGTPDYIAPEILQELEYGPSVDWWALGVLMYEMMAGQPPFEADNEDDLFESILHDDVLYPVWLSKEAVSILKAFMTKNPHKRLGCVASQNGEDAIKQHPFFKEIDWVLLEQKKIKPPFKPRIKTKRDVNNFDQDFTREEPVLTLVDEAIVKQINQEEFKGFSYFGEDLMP
Description: as §1, §2

human PKCζ = biological target: T2, human PKCζ (Homo sapiens, UniProt Q05513); assay: PKC isoforms based HTRF KinEASE-STK assay, PKCζ; details: 10 μM ATP in substrate mix, 70 min
T2 sequence (Q05513 1-592): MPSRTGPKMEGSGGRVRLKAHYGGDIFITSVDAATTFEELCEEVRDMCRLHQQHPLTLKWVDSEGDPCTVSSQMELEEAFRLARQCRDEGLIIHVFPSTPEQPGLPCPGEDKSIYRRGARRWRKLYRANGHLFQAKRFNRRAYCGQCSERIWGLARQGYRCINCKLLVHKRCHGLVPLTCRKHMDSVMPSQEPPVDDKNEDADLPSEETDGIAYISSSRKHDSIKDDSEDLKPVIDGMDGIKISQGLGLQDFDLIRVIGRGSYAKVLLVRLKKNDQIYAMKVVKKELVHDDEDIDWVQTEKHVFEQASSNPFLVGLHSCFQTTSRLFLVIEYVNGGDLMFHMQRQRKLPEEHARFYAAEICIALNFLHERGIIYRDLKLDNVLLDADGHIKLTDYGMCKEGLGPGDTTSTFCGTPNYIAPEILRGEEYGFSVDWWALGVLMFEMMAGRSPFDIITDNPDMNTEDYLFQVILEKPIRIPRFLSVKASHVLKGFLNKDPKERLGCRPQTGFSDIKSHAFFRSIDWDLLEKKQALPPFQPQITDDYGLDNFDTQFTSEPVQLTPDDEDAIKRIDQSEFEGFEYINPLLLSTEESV
Description: as §1, §2

- IC50 (human PKCα): ~16.6 nM
- IC50 (human PKCε): ~21.9 nM
- IC50 (human PKCζ): ~15500 nM
Structure (SMILES): C[C@@H]1CN(C(=O)c2cc(-c3c(F)cc(O)cc3F)cc3cnsc23)C[C@H](C)N1.Cl [Example 2, 4-(7-{[(3R,5 S)-3,5-DIMETHYLPIPERAZIN-1-YL]CARBONYL}-1,2-BENZOTHIAZOL-5-YL)-3,5-DIFLUOROPHENOL HYDROCHLORIDE]
